Data published in ChEMBL document CHEMBL1157709, “Enhancement of EGFR tyrosine kinase inhibition by C-C multiple bonds-containing anilinoquinazolines” (Bioorg Med Chem, 2010).
One block for each compound: values may come before it. The source made the active and inactive calls. The rule behind the calls is not given here.

Key:
[1] = molecular target: T1, Epidermal growth factor receptor (Homo sapiens, UniProt P00533); experiment: Inhibition of recombinant EGFR by ELISA
[2] = molecular target: T1, Epidermal growth factor receptor; experiment: Reversible inhibitory activity of EGF-induced EGFR phosphorylation in human A431 cells at 10 to 100 nM by immunoblot analysis; conditions: A-431
A-431 [3] = experiment: Induction of apoptosis in human A431 cells assessed as early apoptotic cells level at 3 uM after 12 hrs by annexin V/propidium iodide staining-based flow cytometry (Rvb=3.1+/-0.5%); type: functional
A-431 [4] = experiment: Cell cycle arrest in human A431 cells by accumulation at G1 phase at 3 uM after 24 hrs by propidium iodide staining-based flow cytometry (reference value: 39.8+/-0.2%); type: functional
A-431 [5] = experiment: Cell cycle arrest in human A431 cells by accumulation at G1 phase at 1 uM after 24 hrs by propidium iodide staining-based flow cytometry (reference value: 39.8+/-0.2%); type: functional
A-431 [6] = experiment: Induction of apoptosis in human A431 cells assessed as late apoptotic/necrotic cells level at 3 uM after 12 hrs by annexin V/propidium iodide staining-based flow cytometry (Rvb=0.6+/-0.1%); type: functional
A-431 [7] = experiment: Induction of apoptosis in human A431 cells assessed as viable cells level at 3 uM after 12 hrs by annexin V/propidium iodide staining-based flow cytometry (reference value: 95.4+/-0.5%); type: functional
A-431 [8] = experiment: Cell cycle arrest in human A431 cells by accumulation at S phase at 3 uM after 24 hrs by propidium iodide staining-based flow cytometry (reference value: 48.5+/-4.2%); type: functional
A-431 [9] = experiment: Cell cycle arrest in human A431 cells by accumulation at G2/M phase at 1 uM after 24 hrs by propidium iodide staining-based flow cytometry (reference value: 11.1+/-3.1%); type: functional
A-431 [10] = experiment: Cell cycle arrest in human A431 cells by accumulation at G2/M phase at 3 uM after 24 hrs by propidium iodide staining-based flow cytometry (reference value: 11.1+/-3.1%); type: functional
A-431 [11] = experiment: Cell cycle arrest in human A431 cells by accumulation at S phase at 1 uM after 24 hrs by propidium iodide staining-based flow cytometry (reference value: 48.5+/-4.2%); type: functional
A-431 [12] = experiment: Induction of apoptosis in human A431 cells assessed as pre-necrotic cells level at 3 uM after 12 hrs by annexin V/propidium iodide staining-based flow cytometry (Rvb=0.9+/-0.1%); type: functional
A-431 [13] = experiment: cells; type: functional; conditions: Homo sapiens, A-431, 72 h
Description: Growth inhibition of human A431 cells after 72 hrs by MTT assay

T1 sequence (P00533 whole entry): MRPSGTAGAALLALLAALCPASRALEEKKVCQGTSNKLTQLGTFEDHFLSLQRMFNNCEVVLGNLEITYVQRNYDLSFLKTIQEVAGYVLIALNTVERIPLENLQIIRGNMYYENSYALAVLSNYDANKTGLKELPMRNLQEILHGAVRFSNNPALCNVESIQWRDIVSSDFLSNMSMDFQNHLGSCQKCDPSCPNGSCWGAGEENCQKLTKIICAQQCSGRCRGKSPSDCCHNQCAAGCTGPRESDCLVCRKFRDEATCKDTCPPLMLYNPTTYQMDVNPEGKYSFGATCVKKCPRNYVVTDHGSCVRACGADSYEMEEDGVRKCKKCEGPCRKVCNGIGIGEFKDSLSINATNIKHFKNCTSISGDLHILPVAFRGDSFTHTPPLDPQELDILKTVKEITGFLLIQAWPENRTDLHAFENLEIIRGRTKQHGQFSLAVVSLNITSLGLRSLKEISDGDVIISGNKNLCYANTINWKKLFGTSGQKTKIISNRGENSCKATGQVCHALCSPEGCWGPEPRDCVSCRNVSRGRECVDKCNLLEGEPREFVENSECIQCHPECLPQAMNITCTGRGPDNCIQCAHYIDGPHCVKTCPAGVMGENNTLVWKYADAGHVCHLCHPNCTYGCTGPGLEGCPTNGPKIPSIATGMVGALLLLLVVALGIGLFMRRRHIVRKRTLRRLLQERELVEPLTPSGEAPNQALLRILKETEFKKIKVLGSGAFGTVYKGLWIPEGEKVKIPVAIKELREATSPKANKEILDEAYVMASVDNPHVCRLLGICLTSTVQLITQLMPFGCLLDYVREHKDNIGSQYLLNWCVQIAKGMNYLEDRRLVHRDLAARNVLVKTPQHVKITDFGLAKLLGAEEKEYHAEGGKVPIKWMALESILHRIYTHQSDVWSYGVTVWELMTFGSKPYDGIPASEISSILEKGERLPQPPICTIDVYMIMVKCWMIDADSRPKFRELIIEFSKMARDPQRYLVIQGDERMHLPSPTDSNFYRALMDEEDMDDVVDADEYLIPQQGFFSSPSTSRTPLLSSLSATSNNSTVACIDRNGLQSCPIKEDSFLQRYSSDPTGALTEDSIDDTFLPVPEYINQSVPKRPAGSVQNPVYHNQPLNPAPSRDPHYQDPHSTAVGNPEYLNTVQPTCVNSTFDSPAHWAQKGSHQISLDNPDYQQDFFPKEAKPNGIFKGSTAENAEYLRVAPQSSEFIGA

Compound: C#CCOc1cc2c(Nc3ccc(F)c(Cl)c3)ncnc2cc1OC
IC50 [1]: 14.8 nM
inhibition [2]: Active

Compound: CCCCCCOc1cc2c(Nc3ccc(F)c(Cl)c3)ncnc2cc1OC
IC50 [1]: 106 nM

Compound: C=CCCCCOc1cc2c(Nc3ccc(F)c(Cl)c3)ncnc2cc1OC
IC50 [1]: 32.6 nM

Compound: C#CCOc1cc2c(Nc3cccc(Cl)c3)ncnc2cc1OC
IC50 [1]: 25.9 nM
inhibition [2]: Active

Compound: C#Cc1cc2c(Nc3ccc(F)c(Cl)c3)ncnc2cc1OC
IC50 [1]: > 1000 nM

Continued by falling IC50 [1], values first:

IC50 [1]: 32.7 nM
Compound: C#CCCCCCOc1cc2c(Nc3ccc(F)c(Cl)c3)ncnc2cc1OC

IC50 [1]: 17.7 nM
Compound: C#CCCCOc1cc2c(Nc3cccc(Cl)c3)ncnc2cc1OC

IC50 [1]: 2.53 nM
GI50 (A-431 [13]): 221 nM
Compound: C#CCCCOc1cc2c(Nc3ccc(F)c(Cl)c3)ncnc2cc1OC
Activity (A-431 [3]): 13.5%
Activity (A-431 [4]): 65.3%
Activity (A-431 [5]): 53.5%
Activity (A-431 [6]): 4.2%
Activity (A-431 [7]): 81.2%
Activity (A-431 [8]): 22.1%
Activity (A-431 [9]): 11.7%
Activity (A-431 [10]): 12.5%
Activity (A-431 [11]): 34.7%
Activity (A-431 [12]): 1.1%
